Measurements published in patent US5981574A, “Phenanthrofuran derivatives” (Phytera, Inc., priority 1998, dated 1999).

System: Human umbilical-vein endothelial cells (HUVEC)
Test: Anti-angiogenic activity in Tube Formation Assay (collagen tube, 1st Assay and 2nd Assay)
Format: cell-based
Conditions: for inhibition at 10 µg/mL / inhibition at 30 µg/mL / inhibition at 1 µM / inhibition at 10 µM / inhibition at 1 µg/mL: Homo sapiens, HUVEC; for inhibition at 10 µg/mL: 10 μg/ml; for inhibition at 30 µg/mL: 30 μg/ml; for inhibition at 1 µM / inhibition at 10 µM: positive control
Experimental: Anti-angiogenic activity: collagen tube
Human umbilical-vein endothelial cells (HUVEC; Kurabo Industries, Ltd., Osaka, Japan) were cultured with M-199 medium (Gibco, Gaithersburg, Md.) with […], bFGF (15 ng/mL; PeproTech EC, Ltd., Princeton, N.J.) and epidermal growth factor (EGF) (15 ng/mL; Upstate Biotechnology Inc., Lake Placid, N.Y.) until they become confluent. All experiments were performed using cells that were passaged at least five times. Eight volumes of type-I collagen solution (Nitta Gelatin Inc., Osaka, Japan)were mixed with one volume of 10X M-199 medium and one volume of reconstruction buffer (0.5 N NaOH, 200 mM HEPES and 260 mM NaHCO3).
Collagen gel (300 μL/well) was placed in 24-well culture plates (NUNC) and incubated for 1.5 hours. HUVEC (1.4×10^5 /0.5 mL) were seeded in the collagen-coated plates and cultured for 2 hours at 37° C. Fifty microliters of sample were added. The collagen gel was replaced (300 μL/well), and the mixture was cultured for 1.5 hours. Three hundred fifty microliters of M-199 medium with […], 30 ng/mL basic fibroblast growth factor (bFGF) were added, and the mixture was cultured for 20 hours. One field per well was photographed with a phase-contrast microscope, and the length of the tube structures were measured on a Macintosh computer using the public domain NIH Image program (see Table 1 for results). Erbstatin was used as a positive control for inhibition of angiogenesis.

[1] = 1st Assay, 1 μg/ml, n.e.: no effect, over 100% = more inhibition than in control cultures without bFGF
[2] = 1st Assay, over 100% = more inhibition than in control cultures without bFGF
[3] = 2nd Assay, over 100% = more inhibition than in control cultures without bFGF

SMILES: CC1=C(C)C2=CC(=O)c3c(c(O)c4occ(C)c4c3O)C2(C)CC1 (stereo not drawn) [Ajuforrestine A fraction, 1,11b-dihydro-7,11-dihydroxy-3,4,8,11b-tetramethyl-phenanthro[3,2-b]furan-6(2H)-one]
- % of inhibition (tube formation) [1]: n.e.
- inhibition at 10 µg/mL [2]: 99.6%
- inhibition at 30 µg/mL [2]: 102%
- inhibition at 10 µg/mL [3]: 98%
- inhibition at 30 µg/mL [3]: 109%

SMILES: O=CN/C=C/c1cc(O)ccc1O [Erbstatin, reference compound]
- inhibition at 1 µM (1st Assay): 7.6%
- inhibition at 10 µM (1st Assay): 118%
- inhibition at 1 µM (2nd Assay): 6.7%
- inhibition at 10 µM (2nd Assay): 108%

SMILES: CC1=C(C)C2=CC(=O)c3c(c(O)c4oc(C)cc4c3O)C2(C)CC1 (stereo not drawn) [Formula I-A fraction]
- inhibition at 1 µg/mL [1]: 115%
- inhibition at 10 µg/mL [2]: 119%
- inhibition at 30 µg/mL [2]: 119%
- inhibition at 1 µg/mL (2nd Assay, 1 μg/ml, over 100% = more inhibition than in control cultures without bFGF): 108%
- inhibition at 10 µg/mL [3]: 108%
- inhibition at 30 µg/mL [3]: 107%
